For assay [1], the system named is S. pneumoniae (penicillin-resistant). As to the kind of experiment: MIC by broth microdilution. It counts as cell-based. The conditions noted are these: N=352; for MIC50 / MIC90: Streptococcus pneumoniae. On the procedure: (§1) Whole-cell antimicrobial activity was determined by broth microdilution. Test compounds were dissolved in DMSO and diluted 1:10 in water to produce a 64 mcg/ml stock solution. Using a 96 well microtitre plate, a Microlab AT Plus 2 (Hamilton Co., Reno, Nev.) serially diluted 50 ul of the stock solution into an appropriate broth medium. Staphylococcal isolates were tested using cation adjusted Mueller Hinton broth. For S. pneumonaie testing, the Mueller Hinton broth was supplemented with 5% lysed horse blood and H. influenzae was tested with Haemophilus Test Medium. After the compounds were diluted, a 50 ul aliquot of the test isolate (˜1×10^6 cfu/ml) prepared in normal saline was added to each well of the microtitre plate. The final test concentrations ranged from 0.016-16 ug/mL. Inoculated plates were incubated at 35° C. in ambient air for 18 to 24 hours. The minimum inhibitory concentration (MIC) was determined as the lowest concentration of compound that inhibited visible growth.

The test system of assay [2] is S. pneumoniae (levofloxacin-resistant). As to the kind of experiment: MIC by broth microdilution. The conditions noted are these: N=13; for MIC50 / MIC90: Streptococcus pneumoniae. It counts as cell-based. On the procedure: as §1
Background: Dilution methods test growth across graded concentrations, often in twofold steps.

Assay [3] concerns S. aureus (methicillin-resistant). Kind of assay: MIC by broth microdilution. The conditions noted are these: N=51; for MIC50 / MIC90: Staphylococcus aureus. It counts as cell-based. On the procedure:
as §1

Assay [4] has as its system S. pyogenes (macrolide-resistant). As to the kind of experiment: MIC by broth microdilution. It counts as cell-based. The conditions noted are these: N=83; for MIC50 / MIC90: Streptococcus pyogenes. On the procedure:
as §1

In assay [5] the test system is S. pneumoniae (macrolide-resistant). Kind of assay: MIC by broth microdilution. The conditions noted are these: N=552; for MIC50 / MIC90: Streptococcus pneumoniae. It counts as cell-based. On the procedure:
as §1

Assay [6] deals with methicillin resistant S. aureus WCUH29. As to the kind of experiment: murine groin abscess infection model, oral efficacy. It counts as in vivo. The conditions noted are these: mouse; for reduction of bacterial counts compared to non-treated controls: oral, p≦0.01. On the procedure:
Oral efficacy of Compound A was evaluated in a murine groin abscess infection model caused by a methicillin resistant S. aureus WCUH29. Animals were infected via subcutaneous injection into the groin with 0.5 mL of inoculum (approximately 5.7 log10 cfu/mouse). Groups of mice (n=5) received either Compound A (100, 300 or 600 mg/kg), moxifloxacin (100 mg/kg) or azithromycin (50 mg/kg).

The next assay relates to S. pneumoniae Eryth^R. Kind of assay: MIC by broth microdilution. The assay is classed as cell-based. The conditions noted are these: 5 isolates. On the procedure: as §1
The subject of the next assay is S. aureus Ketek^R. As to the kind of experiment: MIC by broth microdilution. The assay is classed as cell-based. The conditions noted are these: 4 isolates. On the procedure: as §1
The test system of the next assay is S. aureus Mupirocin^R. As to the kind of experiment: MIC by broth microdilution. It counts as cell-based. The conditions noted are these: 8 isolates. On the procedure:
as §1

The next assay concerns S. epidermidis Meth^R. Kind of assay: MIC by broth microdilution. The conditions noted are these: 6 isolates. It counts as cell-based. On the procedure: as §1
The subject of another assay is H. influenzae BLNAR. As to the kind of experiment: MIC by broth microdilution. It counts as cell-based. The conditions noted are these: 5 isolates. On the procedure:
as §1

Another assay concerns S. aureus Tetracycline^R. Kind of assay: MIC by broth microdilution. The assay is classed as cell-based. The conditions noted are these: 6 isolates. On the procedure: as §1
A further assay concerns H. influenzae ClarR. As to the kind of experiment: MIC by broth microdilution. The conditions noted are these: 5 isolates. It counts as cell-based. On the procedure:
as §1

Assay [7] concerns S. aureus VRSA (vanc MIC > 4 μg/mL). As to the kind of experiment: MIC by broth microdilution. The assay is classed as cell-based. The conditions noted are these: 2 isolates. On the procedure: as §1
For the next assay, the system named is S. pneumoniae Pen^R. Kind of assay: MIC by broth microdilution. It counts as cell-based. The conditions noted are these: 5 isolates. On the procedure: as §1
The test system of another assay is S. aureus Meth^R/Ery^R. As to the kind of experiment: MIC by broth microdilution. The assay is classed as cell-based. The conditions noted are these: 10 isolates. On the procedure:
as §1

A further assay has as its system S. pneumoniae Cipro^R. Kind of assay: MIC by broth microdilution. The conditions noted are these: 5 isolates. It counts as cell-based. On the procedure:
as §1

In assay [8] the test system is S. aureus VISA (vanc. MIC 4 μg/mL). Kind of assay: MIC by broth microdilution. It counts as cell-based. The conditions noted are these: 4 isolates. On the procedure: as §1
Another assay deals with S. aureus Linezolid^R. Kind of assay: MIC by broth microdilution. It counts as cell-based. The conditions noted are these: 3 isolates. On the procedure: as §1

The text below walks through data of US20080139626A1, “Novel Method” (priority 2005, published 2008).

The term MIC50 denotes the lowest concentration that inhibits either 50% of growth or 50% of the strains tested, depending on the study. A higher MIC50 goes with weaker potency. One may read the MIC90 as the lowest concentration that inhibits either 90% of growth or 90% of the strains tested, depending on the study.

Converted amounts (≈) assume the structure as drawn. Where only a bound is given, the exact number is not on record here.

In the case of `CC[C@H]1OC(=O)[C@H](C)C(=O)[C@H](C)[C@@H](O[C@@H]2O[C@H](C)C[C@H](N(C)C)[C@H]2O)[C@](C)(OC)C[C@@H](C)C(=O)[C@H](C)[C@H]2N(CCCCn3cnc(-c4cccnc4)c3)C(=O)O[C@]12C` [Telithromycin], the “MIC Range” value in [1] is given as “≦0.002-16 μg/mL”; in assay [2] it was “≦0.002-2 μg/mL”; in [5], “≦0.002-16 μg/mL”. Besides, the MIC50 was determined as 0.25 µg/mL (≈ 0.308 µM) in assay [1]; 0.12 µg/mL (≈ 0.148 µM) in assay [2]; 0.25 µg/mL (≈ 0.308 µM) in [3]; 0.03 µg/mL (≈ 0.0369 µM) in [4]; 0.25 µg/mL (≈ 0.308 µM) in assay [5]. For the same compound, the MIC90 in assay [1] was 2 µg/mL (≈ 2.46 µM); in [2] it was 0.5 µg/mL (≈ 0.616 µM); in assay [3], more than 16 µg/mL; in [4], 8 µg/mL (≈ 9.85 µM); in [5], 2 µg/mL (≈ 2.46 µM).
Consider `CC[C@H]1OC(=O)[C@H](C)[C@@H](O[C@H]2C[C@@](C)(OC)[C@@H](O)[C@H](C)O2)[C@H](C)[C@@H](O[C@@H]2O[C@H](C)C[C@H](N(C)C)[C@H]2O)[C@](C)(O)C[C@@H](C)CN(C)[C@H](C)[C@@H](O)[C@]1(C)O` [Azithromycin], for which the “reduction of bacterial counts” value in assay [6] (50 mg/kg) came to 3.4 log10 cfu/abscess. Further, the MIC50 in assay [1] was more than 16 µg/mL; in assay [2] it was 16 µg/mL (≈ 21.4 µM); in assay [3], more than 16 µg/mL; in assay [4], 16 µg/mL (≈ 21.4 µM); in [5], more than 16 µg/mL. The MIC90 in assay [1], in [2], in assay [3], in assay [4] and in assay [5] was more than 16 µg/mL throughout.
Regarding `COc1c(N2C[C@@H]3CCCN[C@@H]3C2)c(F)cc2c(=O)c(C(=O)O)cn(C3CC3)c12` [Moxifloxacin], the “reduction of bacterial counts” value in assay [6] (100 mg/kg) is listed as 4.6 log10 cfu/abscess. Further, the MIC50 was determined as 0.12 µg/mL (≈ 0.299 µM) in assay [1]; 4 µg/mL (≈ 9.96 µM) in [2]; 0.12 µg/mL (≈ 0.299 µM) in [3]; 0.12 µg/mL (≈ 0.299 µM) in [4]; 0.12 µg/mL (≈ 0.299 µM) in [5]. Besides, the MIC90 in assay [1] was found to be 0.25 µg/mL (≈ 0.623 µM); in assay [2] it was 8 µg/mL (≈ 19.9 µM); in assay [3], 4 µg/mL (≈ 9.96 µM); in assay [4] it was 0.25 µg/mL (≈ 0.623 µM); in assay [5], 0.25 µg/mL (≈ 0.623 µM). Besides, the “MIC Range” value in assay [4] fell in the range of 0.06 to 0.5 µg/mL.
In the case of `C[C@H]1COc2c(N3CCN(C)CC3)c(F)cc3c(=O)c(C(=O)O)cn1c23` [Levofloxacin], the MIC50 in assay [1] was 1 µg/mL (≈ 2.77 µM); in [2], more than 8 µg/mL; in [3], 0.5 µg/mL (≈ 1.38 µM); in assay [4], 0.5 µg/mL (≈ 1.38 µM); in assay [5] it was 1 µg/mL (≈ 2.77 µM). The MIC90 in assay [1] was 1 µg/mL (≈ 2.77 µM); in assay [2] it was more than 8 µg/mL; in [3] it was more than 8 µg/mL; in [4] it was 1 µg/mL (≈ 2.77 µM); in assay [5], 2 µg/mL (≈ 5.53 µM). In addition, the “MIC Range” value in assay [4] is 0.12 to 2 µg/mL.
As to `CO/N=C(\C(=O)N[C@@H]1C(=O)N2C(C(=O)O)=C(COC(N)=O)CS[C@H]12)c1ccco1` [Cefuroxime], the “MIC Range” value in [1] is 1 to 32 µg/mL; in assay [2], “≦0.015-8 μg/mL”; in assay [4], “≦0.015-0.12 μg/mL”; in assay [5], “≦0.015-32 μg/mL”. Besides, the MIC50 in assay [1] was 4 µg/mL (≈ 9.43 µM); in [2], 2 µg/mL (≈ 4.71 µM); in [3], 4 µg/mL (≈ 9.43 µM); in assay [4] it was not above 0.015 µg/mL; in assay [5] it was 4 µg/mL (≈ 9.43 µM). The MIC90 in [1] was 8 µg/mL (≈ 18.9 µM); in assay [2], 8 µg/mL (≈ 18.9 µM); in assay [3], more than 32 µg/mL; in [4] it was not above 0.015 µg/mL; in assay [5], 8 µg/mL (≈ 18.9 µM).
For `C=C[C@]1(C)C[C@@H](OC(=O)NC(=O)c2cnc(OC)c(N)c2)[C@]2(C)C(C)CC[C@]3(C[C@H](O)C(=O)[C@H]32)[C@@H](C)[C@@H]1O` (stereo partly shown) [Compound A], the “reduction of bacterial counts compared to non-treated controls” value in assay [6] (300 mg/kg) turned out to be 3.6 log10 cfu/abscess; in assay [6] (600 mg/kg), 4.3 log10 cfu/abscess. Moreover, the “MIC Range” value in [1] is 0.03 to 1 µg/mL; in the assay with S. pneumoniae Eryth^R, 0.125 to 0.25 µg/mL; in the assay with S. aureus Ketek^R, 0.5 to 4 µg/mL; in the assay with S. aureus Mupirocin^R, 0.25 to 1 µg/mL; against S. epidermidis Meth^R, 0.25 to 1 µg/mL; against H. influenzae BLNAR, 2 µg/mL (≈ 3.78 µM). Moreover, the “MIC Range” value with S. aureus Tetracycline^R was 0.5 to 2 µg/mL; against H. influenzae ClarR it was 4 to 8 µg/mL; in [7], 0.5 µg/mL (≈ 0.944 µM); in the assay with S. pneumoniae Pen^R, 0.06 to 0.25 µg/mL; in [2] it was 0.12 to 0.5 µg/mL; in assay [3] it was 0.25 to 2 µg/mL. Moreover, the “MIC Range” value was 0.12 to 0.25 µg/mL in [4]; 0.5 to 2 µg/mL with S. aureus Meth^R/Ery^R; 0.125 to 0.25 µg/mL against S. pneumoniae Cipro^R; 0.5 to 4 µg/mL in [8]; 0.015 to 1 µg/mL in assay [5]; 2 µg/mL (≈ 3.78 µM) in the assay on S. aureus Linezolid^R. The MIC50 in assay [1] was 0.25 µg/mL (≈ 0.472 µM); in assay [2], 0.25 µg/mL (≈ 0.472 µM); in assay [3], 1 µg/mL (≈ 1.89 µM); in [4] it was 0.25 µg/mL (≈ 0.472 µM); in [5], 0.25 µg/mL (≈ 0.472 µM). Moreover, the MIC90 is 0.25 µg/mL (≈ 0.472 µM) in assay [1]; 0.5 µg/mL (≈ 0.944 µM) in assay [2]; 1 µg/mL (≈ 1.89 µM) in assay [3]; 0.25 µg/mL (≈ 0.472 µM) in assay [4]; 0.25 µg/mL (≈ 0.472 µM) in assay [5].
